# Measured values: patent publication US7238723B2, “Indole derivatives” (Pfizer Inc., priority 2003, dated 2007)
# Where a name gives a salt, the structure may show the parent alone.
# Legend:
# [1] = 4 weeks at 40° C. and 90% relative humidity; cited from earlier work
# [2] = on further processing; cited from earlier work
# [3] = Moisture sorption by Dynamic Vapour Sorption (DVS); format: physicochemical; settings: 30° C.
# Protocol: The moisture sorption of eletriptan hydrobromide monohydrate was determined using a Dynamic Vapour Sorption (DVS) Automated Sorption Analyser Model DVS-1 instrument manufactured by Surface Measurements Systems Ltd., UK.
# Approximately 25 mg of eletriptan hydrobromide monohydrate was accurately weighed into a sample pan. This was exposed to humidities in the range of from 0 to 90% RH. The analysis was carried out in detail in the range of from 0 to 15% RH, using 15% RH steps in the range of from 15 to 90% RH. The analysis temperature was 30° C. with a nitrogen flow rate of 200 cm^3min^−1.
# Once the monohydrate has formed there is very little additional moisture sorbed and within the range 10 to 90% RH less than 0.3% w/w of water is sorbed.
# [4] = Storage stability of the drug substance, HPLC analysis; format: physicochemical; settings: double polyethylene bags inside a fibreboard drum
# Protocol: • 1) Eletriptan hydrobromide monohydrate was stored in double polyethylene bags inside a fibreboard drum under the following conditions: • 25° C./60% RH for 9 months • 30° C./60% RH for 9 months • 40° C./75% RH for 6 months • (RH=relative humidity)
compound,measurement,setting,value
Br.CN1CCC[C@@H]1Cc1c[nH]c2ccc(CCS(=O)(=O)c3ccccc3)cc12 [anhydrous eletriptan hydrobromide],water absorbed on standing,[1],≤ 1.23 % by weight
same,stability of the solid form,[2],unstable and to undergo polymorphic conversion to the alpha-form
CN1CCC[C@@H]1Cc1c[nH]c2ccc(CCS(=O)(=O)c3ccccc3)cc12 [eletriptan hydrobromide monohydrate],hygroscopicity,[3]; 0 to 90% RH,essentially non-hygroscopic
same,hydrate state,[3]; above 6% RH,remains as a monohydrate
same,water lost (water of the monohydrate),[3]; at 0% RH,3.8 % w/w
same,water sorbed,[3]; within the range 10 to 90% RH,less than 0.3 % w/w
same,degradation on storage (HPLC),[4]; 25° C./60% RH for 9 months,no degradation had occurred
same,degradation on storage (HPLC),[4]; 30° C./60% RH for 9 months,no degradation had occurred
same,degradation on storage (HPLC),[4]; 40° C./75% RH for 6 months,no degradation had occurred
